Source: PMC10783051 (Microbiology Spectrum, 2023)

Tested on: Streptomyces venezuelae ATCC 10712
Assay: Confrontation assay B. velezensis GA1 / S. venezuelae on REM plate, UPLC-MS metabolite profiling of the agar
Conditions: gelified REM, 3 days at 26°C
Procedure: Confrontation assays were performed on square Petri dishes (12 × 12 cm) with 40 mL of REM solid medium at 26°C (REM supplemented with 14 g/L of agar).
S. venezuelae ATCC 10712 was inoculated as stripes (1 × 12 cm) in the middle of the plate with 40 µL of spore suspension (10^7 spores/mL) and spread with a cotton swab. Next, B. velezensis GA1 cells were collected from fresh precultures as described and adjusted to OD600 nm 0.1. Then, 5 µL of B. velezensis GA1 suspension was spotted at 1 cm of the Streptomyces line. Control plates were done following the same procedure without the inoculation of either Bacillus or Streptomyces. Plates were then incubated for 3 days at 26°C in the dark. Pictures of the plates were then captured using a CoolPix camera (NIKKOR ×60 wide optical zoom extra-low dispersion vibration reduction 4.3–258.0 mm 1:33 to 6.5).
The extraction of the metabolites from the agar was performed as follows. For the confrontation experiment, we precisely sampled the area of agar (2 × 1 cm) near the colony of Bacillus or Streptomyces (the confrontation zone is 1 cm wide) with standardized plugs. For the in planta, we sampled the agar area (1 × 1 cm) near the tomato roots. In both cases, the agar samples were transferred to Eppendorf tubes and placed for 24 h at −20°C. Then, the agar was thawed at room temperature and centrifuged for 10 min at 13,000 rpm. The supernatants were then collected and filtered (0.22-µm pore size filters) before UPLC-MS analysis.
All UPLC-MS analyses were performed using an Agilent 1290 Infinity II coupled with a diode array detector and a mass detector (Jet Stream ESI-Q-TOF 6530) in positive mode with the parameters set up as follows: capillary voltage of 3.5 kV, nebulizer pressure of 35 lb/in^2, drying gas of 8 L/min, drying gas temperature of 300°C, flow rate of sheath gas of 11 L/min, sheath gas temperature of 350°C, fragmentor voltage of 175 V, skimmer voltage of 65 V, and octopole radiofrequency of 750 V. Accurate mass spectra were recorded in the m/z range of 300–1,700. For untargeted MS/MS, we used the same MS1 parameters as described. We added MS2 untargeted acquisition mode with the parameters as follows: MS/MS range 50–1,700 m/z; MS/MS scan rate 3 spectra/s; isolation width MS/MS medium (approx. 4 AMU), Decision Engine Native; fixed collision energies of 25 and 40 V for surfactin, 50 V for iturin, and 60 V for fengycin experiments; precursor selection: three for the surfactin experiment, four for the iturin and fengycin experiments, threshold 1,500 (Abs), isotope model common, active exclusion after two spectra and release after 0.5 min, sorting the precursors by charge state then abundance (charge state preference 1). For targeted MS/MS, we used the same MS1 parameters MS/MS range of 50–1,700 m/z or 50–3,200 (when required for Pseudomonas CLPs with mass >1,700 Da), MS/MS scan rate 3 spectra/s, isolation width MS/MS narrow (approx. 1.3 amu), and fixed collision energies 20, 40, and 60V. In all experiments, a C18 Acquity UPLC ethylene bridged hybrid column (2.1 mm × 50 mm × 1.7 µm; Waters Corporation, Milford, MA, USA) was used at a flow rate of 0.6 mL/min and a temperature of 40°C. The injection volume was 20 µL, and the diode array detector scanned a wavelength spectrum between 190 and 600 nm. Unless otherwise mentioned, a gradient of acidified water (0.1% formic acid) (solvent A) and of acidified acetonitrile (0.1% formic acid) (solvent B) was used as mobile phase with a constant flow rate of 0.6 mL/min, starting at 10% B and rising to 100% B in 20 min. Solvent B was kept at 100% for 4 min before going back to the initial ratio. MassHunter Workstation (version 10.0) and ChemStation software were used for data collection and analysis. For untargeted analysis of iturin and fengycin degradation products, we used the same solvent and flow rate, starting at 10% B to 20% in 2 min, then rising to 50% B at 14 min and 100% B at 25 min, followed by 100% B and 5 at 10% B at 6 min.

iturin
shorter CLP fragment detected in the confrontation zone but not in Bv monoculture (UPLC-MS, MS/MS): loss of asparagine in position 3
abundance of the CLP in the confrontation zone compared with monocultures (agar extract of confrontation zone, UPLC-Q-TOF-MS peak areas, three biological replicates): decrease in the abundance
